Data from patent publication US4525473A, “Cephalosporins” (Bristol-Myers Company, priority 1983, dated 1985).
Values after ≈ are worked out from the molar mass of the structure shown. Read-outs that look alike come from different tables or passages of the source.

Tests used:
Type in all cases: cell-based
PCresistant S. aureus = assay: MIC by two-fold serial agar dilution in Mueller-Hinton agar, Gp-Ib; settings: for MIC: Staphylococcus aureus, read-out: Geometric Mean of MIC
Procedure: (§1) In the primary evaluation of the compounds of this invention, the Minimum Inhibitory Concentrations (MIC's) of the compounds were determined by the two-fold serial agar dilution method in Mueller-Hinton agar against 32 strains of test organisms in six groups.
GpIb: PCresistant S. aureus

[1] = test system: Penicillin(PC)sensitive S. aureus; assay: MIC by two-fold serial agar dilution in Mueller-Hinton agar, Gp-Ia; settings: for MIC: Staphylococcus aureus
Procedure: as §1
Gp-Ia: Penicillin(PC)sensitive S. aureus

[2] = test system: M. morganii (1), E. cloacae (2) and S. marcescens (2); assay: MIC by two-fold serial agar dilution in Mueller-Hinton agar, Gn-II; settings: for MIC: read-out: Geometric Mean of MIC
Procedure: as §1
GnII: M. morganii (1), E. cloacae (2) and S. marcescens (2)

[3] = test system: CETresistant E. coli (3) and K. pneumoniae (2); assay: MIC by two-fold serial agar dilution in Mueller-Hinton agar, Gn-Ib; settings: for MIC: Escherichia coli, read-out: Geometric Mean of MIC
Procedure: as §1
GnIb: CETresistant E. coli (3) and K. pneumoniae (2)

[4] = test system: Cephalothin(CET)sensitive E. coli (2 strains), K. pneumoniae (1) and P. mirabilis (2); assay: MIC by two-fold serial agar dilution in Mueller-Hinton agar, Gn-Ia; settings: for MIC: read-out: Geometric Mean of MIC
Procedure: as §1
GnIa: Cephalothin(CET)sensitive E. coli (2 strains), K. pneumoniae (1) an […]

P. aeruginosa = assay: MIC by two-fold serial agar dilution in Mueller-Hinton agar, Gn-III; settings: for MIC: Pseudomonas aeruginosa, read-out: Geometric Mean of MIC
Procedure: as §1

[5] = Gp-Ib, 5 strains, PC-resistant S. aureus
[6] = Gp-Ia, 5 strains, PC-sensitive S. aureus
[7] = Gn-Ib, 5 strains, CET-resistant
[8] = Gn-Ia, 5 strains, CET-sensitive
[9] = Gn-III, 7 strains, P. aeruginosa
[10] = Gp-Ia, 5 strains, PC-sensitive S. aureus, read-out: Geometric Mean of MIC
[11] = read-out: Geometric Mean of MIC, Gp-Ia, 5 strains, PC-sensitive S. aureus

| Compound | Geometric Mean of MIC (PCresistant S. aureus; [5]) [µg/mL] | Geometric Mean of MIC [1, 6] [µg/mL] | Geometric Mean of MIC ([2]; Gn-II, 5 strains) [µg/mL] | Geometric Mean of MIC [3, 7] [µg/mL] | Geometric Mean of MIC (P. aeruginosa; [9]) [µg/mL] | MIC (PCresistant S. aureus; [5]) [µg/mL] | MIC [1, 10] [µg/mL] | MIC ([2]; Gn-II, 5 strains) [µg/mL] | MIC [3, 7] [µg/mL] | MIC [4, 8] [µg/mL] | MIC (P. aeruginosa; [9]) [µg/mL] | MIC [3] [µg/mL] | MIC [4] [µg/mL] | other results |
| --- | --- | --- | --- | --- | --- | --- | --- | --- | --- | --- | --- | --- | --- | --- |
| 7-[(Z)-2-(2-Aminothiazol-4-yl)-2-methoxyiminoacetamido]-3-[(6-methyl-5,6,7,8-tetrahydro-6-[1,6]naphthylidinio)methyl]-3-cephem-4-carboxylate [Example 23] | 2.9 | 1.4 | 0.96 | 0.28 | 6.3 | – | – | – | – | – | – | – | – | Geometric Mean of MIC [4, 8]: 0.070 µg/mL |
| CO/N=C(\C(=O)NC1C(=O)N2C(C(=O)[O-])=C(C[N+]3(C)CCC[C@H]3C(N)=O)CSC12)c1csc(N)n1 (single isomer, unassigned) [8 Isomer A] | – | – | – | – | – | 4.7 (≈ 8.98 µM) | 2.1 (≈ 4.01 µM) | 0.35 (≈ 0.668 µM) | 0.39 (≈ 0.745 µM) | 0.098 (≈ 0.187 µM) | 11 (≈ 21 µM) | – | – | – |
| CO/N=C(\C(=O)NC1C(=O)N2C(C(=O)[O-])=C(C[N+]3(C)CCC[C@H]3C(N)=O)CSC12)c1csc(N)n1 (single isomer, unassigned) [8 Isomer B] | 4.1 | 1.6 | – | – | 7.2 | – | – | – | – | – | – | 0.2 (≈ 0.382 µM) | – | MIC [2]: 0.23 µg/mL (≈ 0.439 µM); Geometric Mean of MIC [4, 8]: 0.057 µg/mL |
| CO/N=C(\C(=O)NC1C(=O)N2C(C(=O)[O-])=C(C[N+]3(C)CCOC3)CSC12)c1csc(N)n1 (single isomer, unassigned) [12 Isomer A] | – | – | – | – | – | 4.4 (≈ 9.12 µM) | – | 0.21 (≈ 0.435 µM) | 0.25 (≈ 0.518 µM) | 0.046 (≈ 0.0953 µM) | 5.4 (≈ 11.2 µM) | – | – | MIC [1, 11]: 1.1 µg/mL (≈ 2.28 µM) |
| CO/N=C(\C(=O)NC1C(=O)N2C(C(=O)[O-])=C(C[N+]3(C)CCOC3)CSC12)c1csc(N)n1 (single isomer, unassigned) [12 Isomer B] | 4.4 | 1.3 | 0.18 | 0.21 | 4.0 | – | – | – | – | – | – | – | 0.04 (≈ 0.0829 µM) | – |
| CO/N=C(\C(=O)NC1C(=O)N2C(C(=O)[O-])=C(C[N+]3(C)CCSC3)CSC12)c1csc(N)n1 (single isomer, unassigned) [13 Isomer A] | – | – | 0.28 | 0.28 | – | 3.1 (≈ 6.22 µM) | 0.84 (≈ 1.68 µM) | – | – | 0.046 (≈ 0.0923 µM) | 5.9 (≈ 11.8 µM) | – | – | – |
| CO/N=C(\C(=O)NC1C(=O)N2C(C(=O)[O-])=C(C[N+]3(C)CCSC3)CSC12)c1csc(N)n1 (single isomer, unassigned) [13 Isomer B] | 1.6 | 0.72 | 0.13 | 0.13 | – | – | – | – | – | – | – | – | 0.029 (≈ 0.0582 µM) | MIC (P. aeruginosa): 2.5 µg/mL (≈ 5.01 µM) |
| CO/N=C(\C(=O)NC1C(=O)N2C(C(=O)[O-])=C(C[N+]3(C)CCCCC3)CS[C@H]12)c1csc(N)n1 (stereo partly drawn) [Example 1, 7-[(Z)-2-(2-Aminothiazol-4-yl)-2-methoxyiminoacetamido]-3-(1-methyl-1-piperidinio)methyl-3-cephem-4-carboxylate] | – | – | – | – | – | 2.9 (≈ 5.86 µM) | – | 0.55 (≈ 1.11 µM) | – | 0.03 (≈ 0.0607 µM) | 3.2 (≈ 6.47 µM) | 0.14 (≈ 0.283 µM) | – | MIC [1, 11]: 1.3 µg/mL (≈ 2.63 µM) |
| CO/N=C(\C(=O)NC1C(=O)N2C(C(=O)[O-])=C(C[N+]3(C)CCOCC3)CS[C@H]12)c1csc(N)n1 (stereo partly drawn) [Example 2, 7-[(Z)-2-(2-Aminothiazol-4-yl)-2-methoxyiminoacetamido]-3-(4-methyl-4-morpholinio)methyl-3-cephem-4-carboxylate] | – | – | – | – | – | 5 (≈ 10.1 µM) | 1.7 (≈ 3.42 µM) | 0.96 (≈ 1.93 µM) | – | 0.061 (≈ 0.123 µM) | 4 (≈ 8.06 µM) | 0.22 (≈ 0.443 µM) | – | – |
| CO/N=C(\C(=O)NC1C(=O)N2C(C(=O)[O-])=C(C[N+]34CCC(CC3)CC4)CS[C@H]12)c1csc(N)n1 (stereo partly drawn) [Example 3, 7-[(Z)-2-(2-Aminothiazol-4-yl)-2-methoxyiminoacetamido]-3-(1-quinuclidinio)methyl-3-cephem-4-carboxylate] | – | – | – | – | – | – | 0.77 (≈ 1.52 µM) | 0.84 (≈ 1.66 µM) | 0.14 (≈ 0.276 µM) | – | 2.8 (≈ 5.53 µM) | – | 0.04 (≈ 0.079 µM) | MIC (PCresistant S. aureus): 2.5 µg/mL (≈ 4.93 µM) |
